Measurements taken from US9708314B2, “Heterocyclic amide compound” (NISSAN CHEMICAL INDUSTRIES, LTD., priority 2013, dated 2017).

Tests used:
Format in all cases: in vivo
[1] = test system: Veronica persica; test: Test Example 4: herbicidal effect by application to foliage (diluvial soil, plastic box); settings: for R: herbicidal effect on Veronica persica: application to foliage, application herbicide amount 320 g/ha
In short: (§1)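 Read-out is a 0–5 visual grade of herbicidal ratio (5: ≥90%, almost withered; 0: ≤5%) taken three weeks after treatment. Compound was applied as a diluted emulsion to stem and leaf parts of 14-day greenhouse-grown plants (25° C. to 30° C.) at rates expressed as g/ha.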

[2] = test system: Chenopodium album; test: as above; settings: for O: herbicidal effect on Chenopodium album: application to foliage, application herbicide amount 320 g/ha; for O (Chenopodium album) herbicidal effect grade / O: Application herbicide amount 320 g/ha; for O (Chenopodium album) herbicidal effect grade: foliage application
In short: as §1

[3] = test system: Lolium multiflorum Lam.; test: as above; settings: for K: herbicidal effect on Lolium multiflorum Lam.: application to foliage, application herbicide amount 320 g/ha; for K (Lolium multiflorum Lam.) herbicidal effect grade / K: Application herbicide amount 320 g/ha; for K (Lolium multiflorum Lam.) herbicidal effect grade: foliage application
In short: as §1

[4] = test system: Alopecurus myosuroides; test: as above; settings: for J: herbicidal effect on Alopecurus myosuroides: application to foliage, application herbicide amount 320 g/ha; for J (Alopecurus myosuroides) herbicidal effect grade / J: Application herbicide amount 320 g/ha; for J (Alopecurus myosuroides) herbicidal effect grade: foliage application
In short: as §1

[5] = test system: Apera spica-venti.; test: as above; settings: for L: herbicidal effect on Apera spica-venti.: application to foliage, application herbicide amount 320 g/ha; for L (Apera spica-venti.) herbicidal effect grade / L: Application herbicide amount 320 g/ha; for L (Apera spica-venti.) herbicidal effect grade: foliage application
In short: as §1

[6] = test system: Digitaria ciliaris; test: as above; settings: for F: herbicidal effect on Digitaria ciliaris: application to foliage, application herbicide amount 320 g/ha; for F (Digitaria ciliaris) herbicidal effect grade / F: Application herbicide amount 320 g/ha; for F (Digitaria ciliaris) herbicidal effect grade: foliage application
In short: as §1

[7] = test system: Avena fatua; test: as above; settings: for I: herbicidal effect on Avena fatua: application to foliage, application herbicide amount 320 g/ha; for I (Avena fatua) herbicidal effect grade / I: Application herbicide amount 320 g/ha; for I (Avena fatua) herbicidal effect grade: foliage application
In short: as §1

[8] = test system: Echinochloa crus-galli var. crus-galli; test: as above; settings: for H: herbicidal effect on Echinochloa crus-galli var. crus-galli: application to foliage, application herbicide amount 320 g/ha; for H (Echinochloa crus-galli var. crus-galli) herbicidal effect grade / H: Application herbicide amount 320 g/ha; for H (Echinochloa crus-galli var. crus-galli) herbicidal effect grade: foliage application
In short: as §1

[9] = test system: Galium spurium; test: as above; settings: for Q (Galium spurium) herbicidal effect grade / Q: Application herbicide amount 320 g/ha; for Q (Galium spurium) herbicidal effect grade: foliage application
In short: as §1

[10] = test system: Amaranthus retroflexus; test: as above; settings: for N: herbicidal effect on Amaranthus retroflexus: application to foliage, application herbicide amount 320 g/ha; for N (Amaranthus retroflexus) herbicidal effect grade: Application herbicide amount 320 g/ha, foliage application
In short: as §1

[11] = test system: Setaria viridis; test: as above; settings: for G: herbicidal effect on Setaria viridis: application to foliage, application herbicide amount 320 g/ha; for G (Setaria viridis) herbicidal effect grade / G: Application herbicide amount 320 g/ha; for G (Setaria viridis) herbicidal effect grade: foliage application
In short: as §1

[12] = test system: Abutilon theophrasti; test: as above; settings: for M: herbicidal effect on Abutilon theophrasti: application to foliage, application herbicide amount 320 g/ha; for M (Abutilon theophrasti) herbicidal effect grade / M: Application herbicide amount 320 g/ha; for M (Abutilon theophrasti) herbicidal effect grade: foliage application
In short: as §1

[13] = test system: Monochoria vaginalis; test: Test Example 2: herbicidal activity, application during weed generation in submerged conditions; settings: Eighteenth Table; application herbicide amount 320 g/ha
In short: (§2)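 Paddy-type pot test: flooded soil, 4 cm depth, greenhouse 25–30 °C. Emulsion formulation diluted in water, applied to water surface at 1–2 leaf stage; rate expressed as g/ha. Read-out at 3 wk, 0–5 score.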

[14] = test system: Echinochloa oryzacola Vasing.; test: as above; settings: Eighteenth Table; application herbicide amount 320 g/ha
In short: as §2

[15] = test system: Scirpus juncoides; test: as above; settings: Eighteenth Table; application herbicide amount 320 g/ha
In short: as §2

[16] = Application herbicide amount 320 g/ha

| SMILES | R: herbicidal effect on Veronica persica [1] | O: herbicidal effect on Chenopodium album [2] | K: herbicidal effect on Lolium multiflorum Lam. [3] | J: herbicidal effect on Alopecurus myosuroides [4] | L: herbicidal effect on Apera spica-venti. [5] | F: herbicidal effect on Digitaria ciliaris [6] | I: herbicidal effect on Avena fatua [7] | H: herbicidal effect on Echinochloa crus-galli var. crus-galli [8] | N: herbicidal effect on Amaranthus retroflexus [10] | G: herbicidal effect on Setaria viridis [11] | M: herbicidal effect on Abutilon theophrasti [12] | C (Monochoria vaginalis) herbicidal ratio grade [13] | A (Echinochloa oryzicola Vasing.) herbicidal ratio grade [14] | B (Scirpus juncoides) herbicidal ratio grade [15] | O (Chenopodium album) herbicidal effect grade [2] | K (Lolium multiflorum Lam.) herbicidal effect grade [3] | J (Alopecurus myosuroides) herbicidal effect grade [4] | L (Apera spica-venti.) herbicidal effect grade [5] | F (Digitaria ciliaris) herbicidal effect grade [6] | I (Avena fatua) herbicidal effect grade [7] | further results |
| --- | --- | --- | --- | --- | --- | --- | --- | --- | --- | --- | --- | --- | --- | --- | --- | --- | --- | --- | --- | --- | --- |
| Cc1cc(-c2nnc3c(C(=O)Nc4nnnn4C)ccc(C(F)(F)F)n23)no1 [2-017] | 5 (Herbicidal ratio of 90% or more (almost completely withered)) | 5 (Herbicidal ratio of 90% or more (almost completely withered)) | 2 (Herbicidal ratio of 20% or more and less than 40%) | 3 (Herbicidal ratio of 40% or more and less than 70%) | 4 (Herbicidal ratio of 70% or more and less than 90%) | 5 (Herbicidal ratio of 90% or more (almost completely withered)) | 4 (Herbicidal ratio of 70% or more and less than 90%) | 5 (Herbicidal ratio of 90% or more (almost completely withered)) | 5 (Herbicidal ratio of 90% or more (almost completely withered)) | 5 (Herbicidal ratio of 90% or more (almost completely withered)) | 5 (Herbicidal ratio of 90% or more (almost completely withered)) | 4 (Herbicidal ratio of 70% or more and less than 90%) | 5 (Herbicidal ratio of 90% or more (almost completely withered)) | 4 (Herbicidal ratio of 70% or more and less than 90%) | – | – | – | – | – | – | Q: herbicidal effect on Galium spurium ([9]; application to foliage, application herbicide amount 320 g/ha): 1 (Herbicidal ratio of 5% or more and less than 20%) |
| CN(c1nnc2c(C(=O)Nc3nnco3)ccc(C(F)(F)F)n12)C1CCCCC1 [1-123] | – | – | – | – | – | – | – | – | – | – | – | 3 (Herbicidal ratio of 40% or more and less than 70%) | 3 (Herbicidal ratio of 40% or more and less than 70%) | 2 (Herbicidal ratio of 20% or more and less than 40%) | 5 (Herbicidal ratio of 90% or more (almost completely withered)) | 0 (Herbicidal ratio of 5% or less (almost no effect)) | 0 (Herbicidal ratio of 5% or less (almost no effect)) | 0 (Herbicidal ratio of 5% or less (almost no effect)) | 4 (Herbicidal ratio of 70% or more and less than 90%) | 1 (Herbicidal ratio of 5% or more and less than 20%) | R (Veronica persica) herbicidal effect grade ([1]; Application herbicide amount 320 g/ha, foliage application): 3 (Herbicidal ratio of 40% or more and less than 70%); H (Echinochloa crus-galli var. crus-galli) herbicidal effect grade [8]: 4 (Herbicidal ratio of 70% or more and less than 90%); Q (Galium spurium) herbicidal effect grade [9]: 2 (Herbicidal ratio of 20% or more and less than 40%); N (Amaranthus retroflexus) herbicidal effect grade [10]: 4 (Herbicidal ratio of 70% or more and less than 90%); G (Setaria viridis) herbicidal effect grade [11]: 3 (Herbicidal ratio of 40% or more and less than 70%); M (Abutilon theophrasti) herbicidal effect grade [12]: 4 (Herbicidal ratio of 70% or more and less than 90%) |
| CC(C)c1nnc2c(C(=O)N(C)c3nnnn3C)ccc(C(F)(F)F)n12 [2-023] | 4 (Herbicidal ratio of 70% or more and less than 90%) | 4 (Herbicidal ratio of 70% or more and less than 90%) | 0 (Herbicidal ratio of 5% or less (almost no effect)) | 0 (Herbicidal ratio of 5% or less (almost no effect)) | 0 (Herbicidal ratio of 5% or less (almost no effect)) | 1 (Herbicidal ratio of 5% or more and less than 20%) | 0 (Herbicidal ratio of 5% or less (almost no effect)) | 4 (Herbicidal ratio of 70% or more and less than 90%) | 5 (Herbicidal ratio of 90% or more (almost completely withered)) | 1 (Herbicidal ratio of 5% or more and less than 20%) | 3 (Herbicidal ratio of 40% or more and less than 70%) | 1 (Herbicidal ratio of 5% or more and less than 20%) | 0 (Herbicidal ratio of 5% or less (almost no effect)) | 1 (Herbicidal ratio of 5% or more and less than 20%) | – | – | – | – | – | – | – |
| CN(C)c1nnc2c(C(=O)Nc3nnco3)ccc(C(F)(F)F)n12 [1-103] | – | – | – | – | – | – | – | – | – | – | – | 4 (Herbicidal ratio of 70% or more and less than 90%) | 4 (Herbicidal ratio of 70% or more and less than 90%) | 5 (Herbicidal ratio of 90% or more (almost completely withered)) | – | – | – | – | – | – | R [1, 16]: 5 (Herbicidal ratio of 90% or more (almost completely withered)); O [2]: 5 (Herbicidal ratio of 90% or more (almost completely withered)); K [3]: 3 (Herbicidal ratio of 40% or more and less than 70%); J [4]: 2 (Herbicidal ratio of 20% or more and less than 40%); L [5]: 3 (Herbicidal ratio of 40% or more and less than 70%); F [6]: 5 (Herbicidal ratio of 90% or more (almost completely withered)); I [7]: 4 (Herbicidal ratio of 70% or more and less than 90%); H [8]: 5 (Herbicidal ratio of 90% or more (almost completely withered)); Q [9]: 4 (Herbicidal ratio of 70% or more and less than 90%); G [11]: 5 (Herbicidal ratio of 90% or more (almost completely withered)); M [12]: 4 (Herbicidal ratio of 70% or more and less than 90%) |
| COCCN(C)c1nnc2c(C(=O)Nc3nnc(C)o3)ccc(C(F)(F)F)n12 [1-129] | – | – | – | – | – | – | – | – | – | – | – | 3 (Herbicidal ratio of 40% or more and less than 70%) | 3 (Herbicidal ratio of 40% or more and less than 70%) | 4 (Herbicidal ratio of 70% or more and less than 90%) | 5 (Herbicidal ratio of 90% or more (almost completely withered)) | 1 (Herbicidal ratio of 5% or more and less than 20%) | 1 (Herbicidal ratio of 5% or more and less than 20%) | 1 (Herbicidal ratio of 5% or more and less than 20%) | 4 (Herbicidal ratio of 70% or more and less than 90%) | 2 (Herbicidal ratio of 20% or more and less than 40%) | H (Echinochloa crus-galli var. crus-galli) herbicidal effect grade [8]: 5 (Herbicidal ratio of 90% or more (almost completely withered)); Q (Galium spurium) herbicidal effect grade [9]: 0 (Herbicidal ratio of 5% or less (almost no effect)); N (Amaranthus retroflexus) herbicidal effect grade [10]: 4 (Herbicidal ratio of 70% or more and less than 90%); G (Setaria viridis) herbicidal effect grade [11]: 4 (Herbicidal ratio of 70% or more and less than 90%); M (Abutilon theophrasti) herbicidal effect grade [12]: 3 (Herbicidal ratio of 40% or more and less than 70%) |
| CC(=O)OCc1nnc2c(C(=O)Nc3nnc(C)o3)ccc(C(F)(F)F)n12 [1-062] | – | – | – | – | – | – | – | – | – | – | – | 2 (Herbicidal ratio of 20% or more and less than 40%) | 2 (Herbicidal ratio of 20% or more and less than 40%) | 2 (Herbicidal ratio of 20% or more and less than 40%) | – | – | – | – | – | – | R [1, 16]: 4 (Herbicidal ratio of 70% or more and less than 90%); O [2]: 5 (Herbicidal ratio of 90% or more (almost completely withered)); K [3]: 0 (Herbicidal ratio of 5% or less (almost no effect)); J [4]: 1 (Herbicidal ratio of 5% or more and less than 20%); L [5]: 1 (Herbicidal ratio of 5% or more and less than 20%); F [6]: 5 (Herbicidal ratio of 90% or more (almost completely withered)); I [7]: 3 (Herbicidal ratio of 40% or more and less than 70%); H [8]: 5 (Herbicidal ratio of 90% or more (almost completely withered)); Q [9]: 4 (Herbicidal ratio of 70% or more and less than 90%); G [11]: 3 (Herbicidal ratio of 40% or more and less than 70%); M [12]: 5 (Herbicidal ratio of 90% or more (almost completely withered)) |
